“And” between values parts separate entries of the source, which are not always exact repeats. Equal values may be shown once.
Molecular target: c-Met kinase (Homo sapiens, UniProt P08581)
Sequence (P08581 25-1390): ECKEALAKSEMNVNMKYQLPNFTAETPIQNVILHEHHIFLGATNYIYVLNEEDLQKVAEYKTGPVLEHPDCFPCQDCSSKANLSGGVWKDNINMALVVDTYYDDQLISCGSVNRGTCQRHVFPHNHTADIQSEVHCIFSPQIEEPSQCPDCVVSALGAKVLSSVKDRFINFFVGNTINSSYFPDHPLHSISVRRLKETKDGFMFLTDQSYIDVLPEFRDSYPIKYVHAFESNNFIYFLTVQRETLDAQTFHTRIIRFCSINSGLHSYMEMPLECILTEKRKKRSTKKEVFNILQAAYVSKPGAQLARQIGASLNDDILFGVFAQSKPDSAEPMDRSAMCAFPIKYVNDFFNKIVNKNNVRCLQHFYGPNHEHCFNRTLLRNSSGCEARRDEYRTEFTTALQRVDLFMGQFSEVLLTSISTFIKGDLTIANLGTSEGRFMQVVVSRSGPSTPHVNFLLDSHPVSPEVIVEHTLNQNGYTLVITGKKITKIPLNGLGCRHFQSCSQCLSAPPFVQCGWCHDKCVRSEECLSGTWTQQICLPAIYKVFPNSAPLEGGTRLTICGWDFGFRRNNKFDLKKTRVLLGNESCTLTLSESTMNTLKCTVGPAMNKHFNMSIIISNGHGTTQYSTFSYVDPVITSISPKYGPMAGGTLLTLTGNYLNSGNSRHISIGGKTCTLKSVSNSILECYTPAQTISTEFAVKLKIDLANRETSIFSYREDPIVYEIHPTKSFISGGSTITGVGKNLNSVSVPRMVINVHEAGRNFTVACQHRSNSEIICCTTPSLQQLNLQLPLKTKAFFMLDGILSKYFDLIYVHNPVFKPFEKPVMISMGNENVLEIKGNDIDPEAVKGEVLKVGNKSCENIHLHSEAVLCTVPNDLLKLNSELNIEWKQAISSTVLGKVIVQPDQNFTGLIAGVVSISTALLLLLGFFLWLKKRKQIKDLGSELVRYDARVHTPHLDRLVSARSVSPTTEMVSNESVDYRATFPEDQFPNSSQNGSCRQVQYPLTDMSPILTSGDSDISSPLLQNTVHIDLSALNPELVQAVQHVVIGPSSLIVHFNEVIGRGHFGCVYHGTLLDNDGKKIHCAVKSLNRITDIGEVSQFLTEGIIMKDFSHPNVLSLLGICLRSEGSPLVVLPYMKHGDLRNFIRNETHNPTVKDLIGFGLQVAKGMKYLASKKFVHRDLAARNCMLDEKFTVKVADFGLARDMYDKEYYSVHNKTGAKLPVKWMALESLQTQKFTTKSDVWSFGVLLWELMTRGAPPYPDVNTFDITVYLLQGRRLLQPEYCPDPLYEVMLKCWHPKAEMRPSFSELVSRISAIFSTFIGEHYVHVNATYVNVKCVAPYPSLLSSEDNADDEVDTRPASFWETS
Assay: c-Met kinase inhibitory activity assay (in vitro)
Type: biochemical
Conditions: ATP 30 uM, enzyme 0.25 nM; means from three independent experiments
Experimental: (§1) The in vitro inhibition assays of all final compounds against Mer and c-Met kinase were performed by Shanghai Bioduro Biological Technology Co., Ltd. (Shanghai, China). We prepared 1× buffer: HEPES 50 mM, MgCl2 10 mM, EGTA 1 mM, NP-40 0.0001%, DTT 2 mM; compound dilution with DMSO. For test compounds, a 100 × final concentration solution was prepared. About 100 nL compounds were transferred to a 384-well plate by using the automated liquid handler. The final DMSO% in the assay is 1%. Enzyme stock solutions were diluted with 1× assay buffer to a concentration of 0.5 nM to make a 2× working solution. […] Substrate solutions were diluted with 1× assay buffer. About 5 μL mix or buffer was added manually to the assay plate (ATP final 30 uM and TK-Sub-Biotin final 2 uM) using a multichannel pipette, spun down at 1000 rpm, and centrifuged for 30 s. After incubating at 30 °C for 60 min, 10 μL of detection solution was added to each well of the assay, mixed briefly with a centrifuge, and equilibrated for another 60 min. The luminescence was recorded using Envision.
`CC(=O)N1CCN(CC(=O)Nc2ccc(Nc3nccc(Oc4ccc(NC(=O)C5(C(=O)Nc6ccc(F)cc6)CC5)cc4)n3)cc2)CC1` [Compound 18j] showed an IC50 of 32.8 ± 5.8 nM. `Cc1c(C(=O)Nc2ccc(Oc3ccnc(Nc4ccc(NC(=O)CN5CCN(C)CC5)c(C#N)c4)n3)cc2)c(=O)n(-c2ccccc2)n1C` [Compound 14g] showed an IC50 of 89.4 ± 12.6 nM. Work on `CN1CCN(CC(=O)N(C)c2ccc(Nc3nccc(Oc4ccc(NC(=O)C5(C(=O)Nc6ccc(F)cc6)CC5)cc4)n3)cc2)CC1` [Compound 18m] yielded an IC50 of 74.4 ± 13.5 nM. In the case of `Cc1c(C(=O)Nc2ccc(Oc3ccnc(Nc4ccc(NC(=O)CN5CCN(C)CC5)cc4)n3)cc2)c(=O)n(-c2ccccc2)n1C` [Compound 14b], the IC50 is reported as 179 ± 25.2 nM. For `O=C(Nc1ccc(F)cc1)C1(C(=O)Nc2ccc(Oc3ccnc(Nc4ccc(CCC(O)c5ccccc5)cc4)n3)cc2)CC1` (stereo not drawn) [Compound 18f], the IC50 was > 1000 nM. Molecule `CN1CCN(CC(=O)Nc2cccc(Nc3nccc(Oc4ccc(NC(=O)C5(C(=O)Nc6ccc(F)cc6)CC5)cc4)n3)c2)CC1` [Compound 18o] has an IC50 of 39.8 ± 6.6 nM. `Cc1c(C(=O)Nc2ccc(Oc3ccnc(Nc4ccc(C(=O)NCCCN5CCOCC5)cc4)n3)cc2)c(=O)n(-c2ccccc2)n1C` [Compound 14a] showed an IC50 of 151 ± 22.6 nM. Work on `Cc1c(C(=O)Nc2ccc(Oc3ccnc(Nc4cccc(C(=O)NCCCN5CCOCC5)c4)n3)cc2)c(=O)n(-c2ccccc2)n1C` [Compound 14e] yielded an IC50 of 321 ± 25.6 nM. Work on `CC(C(=O)Nc1ccc(Nc2nccc(Oc3ccc(NC(=O)C4(C(=O)Nc5ccc(F)cc5)CC4)cc3)n2)cc1)N1CCN(C)CC1` (stereo not drawn) [Compound 18n] yielded an IC50 of 30.7 ± 4.8 nM. Work on `O=C(CN1CCN(CC2CC2)CC1)Nc1ccc(Nc2nccc(Oc3ccc(NC(=O)C4(C(=O)Nc5ccc(F)cc5)CC4)cc3)n2)cc1` [Compound 18i] yielded an IC50 of 77.1 ± 15.2 nM. Work on `CCN1CCN(CC(=O)Nc2ccc(Nc3nccc(Oc4ccc(NC(=O)C5(C(=O)Nc6ccc(F)cc6)CC5)cc4)n3)cc2)CC1` [Compound 18g] yielded an IC50 of 48.7 ± 8.7 nM.

Tested on: not listed separately
Assay: Liver microsome stability assay
Type: in vitro ADME
Conditions: pH 7.4; human liver microsomes 0.2 mg/mL, test compound 1 μM, NADPH; read-out: CL Human
Experimental: Stock solution (10 mM) of each of test compound was prepared in DMSO. The stock solution for each compound was then diluted into 200 μM with acetonitrile. Incubation mixtures were prepared in a total volume of 200 μL with final component concentrations as follows: 0.1 M PBS (pH 7.4), NADPH (2 mM), liver microsomes (0.2 mg/mL), and test compound (1 μM) or positive control. NAPDH was added after a 5 min preincubation of all other components at 37 °C, then pipette-mixed to achieve a homogenous suspension and immediately transferred 20 μL of the incubate as a 0 min sample to wells in a “Quenching” plate, followed by pipette-mixing. At 5, 15, 30, and 60 min, we pipette-mixed the incubate and serially transferred samples of 20 μL of the incubate per time point to wells in a separate “Quenching” plate, followed by pipette-mixing. In “Quenching” plates, 200 μL of acetonitrile was added with IS. The 96 wells were centrifuged at 4000 rpm for 10 min. Then 50 μL of supernatant was mixed with 50 μL of ddH2O and injected into the LC-MS/MS system for analysis.
Work on `CN1CCN(CC(=O)Nc2cccc(Nc3nccc(Oc4ccc(NC(=O)C5(C(=O)Nc6ccc(F)cc6)CC5)cc4)n3)c2)CC1` [Compound 18o] yielded a microsomal CLint at 1 μM of 400 µL/min/mg. `CC(C(=O)Nc1ccc(Nc2nccc(Oc3ccc(NC(=O)C4(C(=O)Nc5ccc(F)cc5)CC4)cc3)n2)cc1)N1CCN(C)CC1` (stereo not drawn) [Compound 18n] gave a microsomal CLint at 1 μM of 290 µL/min/mg.

Same assay, conditions: pH 7.4; human liver microsomes 0.2 mg/mL, test compound 1 μM, NADPH; read-out: T1/2 Human
`C[C@]12CC[C@H]3[C@@H](CCC4=CC(=O)CC[C@@]43C)[C@@H]1CC[C@@H]2O` [Testosterone, reference compound] showed a half-life at 1 μM of 32.1 min. With `CN1CCN(CC(=O)Nc2cccc(Nc3nccc(Oc4ccc(NC(=O)C5(C(=O)Nc6ccc(F)cc6)CC5)cc4)n3)c2)CC1` [Compound 18o] the half-life at 1 μM was 8.6 min. For `CC(C(=O)Nc1ccc(Nc2nccc(Oc3ccc(NC(=O)C4(C(=O)Nc5ccc(F)cc5)CC4)cc3)n2)cc1)N1CCN(C)CC1` (stereo not drawn) [Compound 18n], the half-life at 1 μM was 11.9 min.

Molecular target: T1, Mer kinase (Homo sapiens, UniProt Q12866)
T1 sequence (Q12866 21-999): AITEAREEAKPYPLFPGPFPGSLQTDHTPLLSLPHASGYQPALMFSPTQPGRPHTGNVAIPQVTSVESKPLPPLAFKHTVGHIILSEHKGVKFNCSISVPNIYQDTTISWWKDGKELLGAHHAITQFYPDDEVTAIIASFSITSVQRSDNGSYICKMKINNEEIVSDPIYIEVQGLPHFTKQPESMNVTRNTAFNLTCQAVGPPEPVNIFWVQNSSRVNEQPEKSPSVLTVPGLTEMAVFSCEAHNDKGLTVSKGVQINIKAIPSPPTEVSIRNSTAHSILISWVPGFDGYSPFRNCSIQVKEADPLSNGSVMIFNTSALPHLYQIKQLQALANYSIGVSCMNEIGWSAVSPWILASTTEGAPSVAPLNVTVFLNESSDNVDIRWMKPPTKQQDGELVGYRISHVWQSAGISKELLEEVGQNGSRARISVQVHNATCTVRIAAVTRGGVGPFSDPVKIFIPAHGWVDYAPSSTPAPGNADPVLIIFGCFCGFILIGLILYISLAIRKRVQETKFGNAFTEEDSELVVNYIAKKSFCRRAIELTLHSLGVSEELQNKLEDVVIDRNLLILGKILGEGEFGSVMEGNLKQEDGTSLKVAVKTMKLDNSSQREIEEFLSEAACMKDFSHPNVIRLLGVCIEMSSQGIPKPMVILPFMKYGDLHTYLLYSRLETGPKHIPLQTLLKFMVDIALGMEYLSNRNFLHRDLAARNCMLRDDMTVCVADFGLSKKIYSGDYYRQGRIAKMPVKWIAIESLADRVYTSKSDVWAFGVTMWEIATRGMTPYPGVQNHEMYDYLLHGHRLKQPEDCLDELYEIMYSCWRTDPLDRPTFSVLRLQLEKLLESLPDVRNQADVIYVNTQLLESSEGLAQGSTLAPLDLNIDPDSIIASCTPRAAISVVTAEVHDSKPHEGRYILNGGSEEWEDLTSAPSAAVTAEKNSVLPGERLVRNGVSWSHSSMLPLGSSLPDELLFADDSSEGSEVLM
Assay: Mer kinase inhibitory activity assay (in vitro)
Type: biochemical
Conditions: ATP 30 uM, enzyme 0.25 nM; means from three independent experiments
Experimental: as §1
`CC(=O)N1CCN(CC(=O)Nc2ccc(Nc3nccc(Oc4ccc(NC(=O)C5(C(=O)Nc6ccc(F)cc6)CC5)cc4)n3)cc2)CC1` [Compound 18j] showed an IC50 of 57.5 ± 9.4 nM. With `Cc1c(C(=O)Nc2ccc(Oc3ccnc(Nc4ccc(NC(=O)CN5CCN(C)CC5)c(C#N)c4)n3)cc2)c(=O)n(-c2ccccc2)n1C` [Compound 14g] the IC50 was 7.1 ± 0.9 nM. `CN1CCN(CC(=O)N(C)c2ccc(Nc3nccc(Oc4ccc(NC(=O)C5(C(=O)Nc6ccc(F)cc6)CC5)cc4)n3)cc2)CC1` [Compound 18m] gave an IC50 of 126 ± 17.8 nM. With `Cc1c(C(=O)Nc2ccc(Oc3ccnc(Nc4ccc(NC(=O)CN5CCN(C)CC5)cc4)n3)cc2)c(=O)n(-c2ccccc2)n1C` [Compound 14b] the IC50 was 9.6 nM and 9.4 nM. Work on `O=C(Nc1ccc(F)cc1)C1(C(=O)Nc2ccc(Oc3ccnc(Nc4ccc(CCC(O)c5ccccc5)cc4)n3)cc2)CC1` (stereo not drawn) [Compound 18f] yielded an IC50 of 463 ± 55.4 nM. For `CN1CCN(CC(=O)Nc2cccc(Nc3nccc(Oc4ccc(NC(=O)C5(C(=O)Nc6ccc(F)cc6)CC5)cc4)n3)c2)CC1` [Compound 18o], the IC50 was 24.8 ± 3.3 nM. With `Cc1c(C(=O)Nc2ccc(Oc3ccnc(Nc4ccc(C(=O)NCCCN5CCOCC5)cc4)n3)cc2)c(=O)n(-c2ccccc2)n1C` [Compound 14a] the IC50 was 8.1 nM and 7.9 nM. `Cc1c(C(=O)Nc2ccc(Oc3ccnc(Nc4cccc(C(=O)NCCCN5CCOCC5)c4)n3)cc2)c(=O)n(-c2ccccc2)n1C` [Compound 14e] showed an IC50 of 40.3 ± 3.6 nM. For `CC(C(=O)Nc1ccc(Nc2nccc(Oc3ccc(NC(=O)C4(C(=O)Nc5ccc(F)cc5)CC4)cc3)n2)cc1)N1CCN(C)CC1` (stereo not drawn) [Compound 18n], the IC50 was 31.6 ± 5.4 nM. Molecule `O=C(CN1CCN(CC2CC2)CC1)Nc1ccc(Nc2nccc(Oc3ccc(NC(=O)C4(C(=O)Nc5ccc(F)cc5)CC4)cc3)n2)cc1` [Compound 18i] has an IC50 of 30.9 ± 5.3 nM. In the case of `CCN1CCN(CC(=O)Nc2ccc(Nc3nccc(Oc4ccc(NC(=O)C5(C(=O)Nc6ccc(F)cc6)CC5)cc4)n3)cc2)CC1` [Compound 18g], the IC50 is reported as 20.3 ± 3.2 nM.
